{"source": "patent US10471119B2", "about": "“Composition for preventing, ameliorating, or treating neurological disease containing osmotin peptide as active ingredient” (INDUSTRY-ACADEMIC COOPERATION FOUNDATION GYEONGSANG …, priority 2015, dated 2019)", "key": {"[1]": {"test": "Brain transfer of osmotin peptide-FITC after IP and tail vein (IV) injection, confocal fluorescence", "format": "in vivo, mice", "conditions": "for migration to the hippocampus of the brain: four hours later, FIG. 3", "procedure": "In addition, osmotin peptide-FITC was administered to the mice by intraperitoneal (IP) injection and tail vein injection (IV). Four hours later, the mice were fixed by transcardial perfusion with 4% (v/v) ice-cold paraformaldehyde, and the brain was harvested and post-fixed in 4% (v/v) paraformaldehyde for 72 hours, and finally, transferred to a 20% (w/v) sucrose for 72 hours.\nThe brain was infiltrated with OCT (optimal cutting temperature compound) under liquid nitrogen, and a 14 μm coronal section was mounted on a ProbeOn Plus slide.\nSlides for immunofluorescence analysis were washed twice with 0.01 M PBS buffer for 15 minutes. The sections were covered with proteinase K and incubated for 5 minutes in a humid chamber at the temperature of 37° C. Incubation was performed for one hour in a blocking solution containing 5% (v/v) normal goat serum dissolved in PBS buffer and 0.3% (v/v) Triton X-100. After the blocking process, the mounting cover slips and sections were observed on a confocal laser-scanning microscope (Flouview FV 1000)."}, "[2]": {"test_system": "human neuroblast line SH-SY5Y", "test": "ApoTox-Glo Triplex assay (cell viability, cytotoxicity, caspase-3 activity)", "format": "cell-based", "conditions": "neuronal cells", "procedure": "Human neuroblast line SH-SY5Y cells were cultured in 100 μl of dulbecco modified eagle medium (DMEM) supplemented with 10% (v/v) fetal bovine serum (FBS) and 1% (w/v) antibiotic (penicillin-streptomycin) at 37° C. and under the condition of 5% CO2.\nCells were seeded in a 96-well plate containing growth medium (DMEM medium containing 10% FBS, 100 units/ml penicillin, and […] streptomycin) in such a way that 100 μl of the culture was seeded in every cell at the population of 2×10^4 cells, and cultured under the condition of 5% CO2 at 37° C. When cells were about 70-90% confluent, they were transformed with pCAX-APP Swe/Ind for 8 hours by using Lipofectamine 3000 according to the manufacturers instructions. Then, the medium was removed by suction and replaced with fresh 100 μl of growth medium containing 0.5 to 20 μM osmotin-peptide. The cells in the fresh medium were incubated for 24 hours.\nAfter 24 hours, ApoTox-Glo™ Triplex assay using Glomax-Multi Detection system was performed according to the manufacturer's instructions to confirm cell viability, cytotoxicity assay, and caspase-3 activity."}}, "note": "Residues, ends and D or L forms follow the SMILES beside them.", "data": [{"smiles": "C[C@@H](O)[C@H](NC(=O)[C@@H]1CCCN1C(=O)CNC(=O)[C@H](CS)NC(=O)[C@@H]1CCCN1C(=O)CNC(=O)[C@H](CCC(N)=O)NC(=O)[C@@H](NC(=O)[C@@H](N)CS)[C@@H](C)O)C(=O)O", "note": "[osmotin peptide] (H-CTQGPCGPT-OH)", "values": [{"measurement": "migration to the hippocampus of the brain", "setting": "[1]; intraperitoneal (IP) injection", "result": "migrated to the hippocampus of the brain"}, {"measurement": "migration to cortex and hypothalamus of the brain", "setting": "[1]; intravenous injection, FIG. 4", "result": "migrated to cortex and hypothalamus of the brain"}, {"measurement": "migration to the hippocampus of the brain", "setting": "[1]; tail vein injection (IV)", "result": "migrated to the hippocampus of the brain"}, {"measurement": "cytotoxicity", "setting": "[2]", "result": "little cytotoxicity"}]}]}
